Measured values: US20250179176A1, “ANTI-TIGIT ANTIBODIES AND USES OF THE SAME” (ARCUS BIOSCIENCES, INC., priority 2022, published 2025)
“Also recorded” adds a separate entry of the source.

How the values were obtained:
[1] = system: metastatic (Stage IV) squamous or non-squamous NSCLC; experiment: Phase 2 study in front-line NSCLC (ARC-7), efficacy; format: in vivo, human
From the text: Participants were randomized 1:1:1 across the three study arms and treated until disease progression or loss of clinical benefit. […] Patients in the zimberelimab monotherapy arm with confirmed progression had the option to cross over to the triplet arm. Co-primary endpoints were objective response rate (ORR) and progression-free survival (PFS). Secondary endpoints included safety, duration of response and disease control rates. Additional assessments of response/on-treatment effects may include measures of immune cell activation, immune cell suppression, immune cell proliferation, T cell receptor dynamics, and/or increases in memory and antigen experienced T cells in periphery or tumor microenvironment, as well as molecular response assessment by ctDNA dynamics and/or changes in tumor cell markers or gene expression.
Further data were obtained from an interim analysis with a data cutoff of Aug. 31, 2022.

human FcγR1 = human FcγR1 (Homo sapiens, UniProt P12314); experiment: ELISA binding of domvanalimab to FcγR; conditions: up to 1 μM, vs human IgG1 control
Description: Antibody-dependent cell mediated cytotoxicity (ADCC) is mediated by the antibody Fc domain binding to a FcγR. […] Human IgG1 was used as a positive control and buffer containing no antibody was used as a negative control.
Briefly, ELISA plate coating solution was prepared by diluting human Fc-gamma receptors in PBS to a final concentration of 1 μg/mL (FcγR1) or 4 μg/mL (Fcγ R2A, 2B, 3A and 3B). 30 μL of coating solution was added to each well of the test plates, and the ELISA plates were then incubated overnight at 4° C. to facilitate receptor binding. The following day, ELISA plates were washed four times with 80 μL wash buffer (1×PBS+0.05% Tween-20) per well, prior to blocking with 80 μL blocking buffer (1×PBS+2% BSA) per well at room temperature for 2 hours.
Plates were then incubated for an hour prior to removal of well contents by aspiration followed by four washes with wash buffer. 30 μL of anti-human IgG HRP conjugate at 1:2500 dilution in antibody buffer was added to each of the washed wells. Plates were further incubated at room temperature for an additional 30 minutes. […] Luminescent signals were captured using an Envision Multimode Reader (Perkin Elmer) system approximately 10 minutes after substrate addition.

[2] = system: Jurkat cell line stably overexpressing human TIGIT; experiment: CDC assay with human complement; format: cell-based; conditions: increasing concentrations up to 33 nM
Description: Briefly, 50,000 Jurkat-TIGIT cells in RPMI 1640 medium (Invitrogen) containing 10% fetal bovine serum (FBS) were seeded into a 96-well round bottom plates (Nunc). Test antibodies were added starting at a top concentration of 50 μg/ml followed by a three-fold dilution series and allowed to incubate with cells for 1 hour at 37° C. in a 5% CO2 incubator. After this 1-hour incubation, human complement was added and allowed to incubate for an additional 3 hours at 37° C. in a 5% CO2 incubator. Following the completion of this 3-hour incubation, […] of propidium iodide (ThermoFisher) was added and samples were analyzed by flow cytometry (BD FACSCalibur) to determine the percentages of propidium iodide positivity as a readout for cell death.

[3] = efficacy population, later cutoff

Sequence of human FcγR1 (P12314 16-374): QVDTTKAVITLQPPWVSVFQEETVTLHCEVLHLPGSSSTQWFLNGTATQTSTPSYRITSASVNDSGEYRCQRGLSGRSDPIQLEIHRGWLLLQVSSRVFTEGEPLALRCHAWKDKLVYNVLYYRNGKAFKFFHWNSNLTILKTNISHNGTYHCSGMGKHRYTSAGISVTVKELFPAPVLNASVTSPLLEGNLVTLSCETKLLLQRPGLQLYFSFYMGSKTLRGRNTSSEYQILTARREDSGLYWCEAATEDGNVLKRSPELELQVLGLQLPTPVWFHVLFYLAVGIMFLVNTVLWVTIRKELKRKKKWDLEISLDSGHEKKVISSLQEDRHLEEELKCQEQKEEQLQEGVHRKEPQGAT

| Molecule | patients with partial response remaining on treatment ([1]; ITT-13, cutoff Aug. 31, 2022) [n] | patients with stable disease remaining on treatment ([1]; ITT-13, cutoff Aug. 31, 2022) [n] | 6-month progression-free survival rate ([1]; Kaplan Meier, ITT-13) [%] | median PFS ([1]; Kaplan Meier, ITT-13) [months] | 6-mo PFS % (95% CI) [1, 3] | CORR (confirmed Objective Response Rate, per RECIST v1.1) [1, 3] | Complete Response [1, 3] | Not Evaluable [1, 3] | Partial Response [1, 3] | Progressive Disease [1, 3] | Stable Disease [1, 3] | median PFS [1, 3] [mo] | binding to human FcγR1 (human FcγR1) | complement-dependent cytotoxicity [2] |
| --- | --- | --- | --- | --- | --- | --- | --- | --- | --- | --- | --- | --- | --- | --- |
| zimberelimab: antagonistic PD-1 antibody, immune checkpoint inhibitor | 5 | 3 | 43 | 5.4 | 43 (27, 59) % | 12 (27) n (%) | 0 (0) n (%) | 7 (16) n (%) | 12 (27) n (%) | 11 (25) n (%) | 14 (32) n (%) | 5.4 | – | – |
| domvanalimab: anti-TIGIT antibody with engineered IgG1 Fc, reduced FcγR binding; heavy chain SEQ ID NO: 12, light chain SEQ ID NO: 13 (antibody) heavy: EVQLVESGGGLVQPGGSLRLSCAASGFTFSNFGMHWVRQAPGKGLEWVAFISSGSSSIYYADTVKGRFTISRDNAKNSLYLQMNSLRAEDTAVYYCARMRLDYYAMDYWGQGTMVTVSSASTKGPSVFPLAPSSKSTSGGTAALGCLVKDYFPEPVTVSWNSGALTSGVHTFPAVLQSSGLYSLSSVVTVPSSSLGTQTYICNVNHKPSNTKVDKKVEPKSCDKTHTCPPCPAPEAAGGPSVFLFPPKPKDTLMISRTPEVTCWVDVSHEDPEVKFNWYVDGVEVHNAKTKPREEQYNSTYRWSVLTVLHQDWLNGKEYKCKVSNKALPAPIEKTISKAKGQPREPQVYTLPPSRDELTKNQVSLTCLVKGFYPSDIAVEWESNGQPENNYKTTPPVLDSDGSFFLYSKLTVDKSRWQQGNVFSCSVMHEALHNHYTQKSLSLSPGK light: DIQMTQSPSSLSASVGDRVTITCRASKSISKYLAWYQQKPGKAPKLLIYSGSTLQSGVPSRFSGSGSGTDFTLTISSLQPEDFATYYCQQHNEYPWTFGGGTKVEIKRTVAAPSVFIFPPSDEQLKSGTASWCLLNNFYPREAKVQWKVDNALQSGNSQESVTEQDSKDSTYSLSSTLTLSKADYEKHKVYACEVTHQGLSSPVTKSFNRGEC | – | – | – | – | – | – | – | – | – | – | – | – | no significant binding; also recorded: does not bind | No cytotoxicity |
